Assay results taken from patent publication US20020137929A1, “1 - (3-heterocyclylphenyl) isothiourea, -isourea, -guanidine and -amidine herbicidal agents” (Intellectual Property Department, BASF Aktiengesellschaft, priority 1998, published 2002).

Assays:
CYPSE (Flatsedge) = test: Preemergence weed control under flooded paddy conditions; type: in vivo, Cyperus serotinus; conditions: rated 3-4 weeks after treatment
In short: (§1)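 Seeds or propagules sown in silt loam kept flooded 1.5-3 cm; compounds in 50/50 acetone/water pipetted into flood water at about 0.0313 to 0.500 kg/ha. Greenhouse; visual 0-9 rating versus untreated control 3-4 weeks after treatment.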

ABUTH (Velvetleaf) = test: Preemergence herbicidal evaluation; type: in vivo, Abutilon theophrasti; conditions: rated 4-5 weeks after treatment
In short: (§2)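 Rating at 4–5 wk post-spray on a 0–9 visual scale vs control. Application: aqueous acetone, ~0.0156–0.500 kg/ha, to soil surface after seeding, preemergence.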

CASOB (Sicklepod) = test: Preemergence herbicidal evaluation; type: in vivo, Cassia obtusifolia; conditions: rated 4-5 weeks after treatment
In short: as §2

[1] = test system: GLXMAW (Soybean, Williams); test: Preemergence herbicidal evaluation; type: in vivo, Glycine max, (L.) Merr. cv Williams; conditions: rated 4-5 weeks after treatment
Text: (§3) Results of herbicide evaluation are expressed on a rating scale (0-9). The scale is based upon a visual observation of plant stand, vigor, malformation, size, chlorosis and overall plant appearance as compared with a control.
(§4) The preemergence herbicidal activity of the test compounds of the present invention is exemplified by the following tests in which the seeds of a variety of monocotyledonous and dicotyledonous plants are separately mixed with potting soil and planted on top of approximately one inch of soil in separate pint cups. After planting, the cups are sprayed with the selected aqueous acetone solution containing test compound in sufficient quantity to provide the equivalent of about 0.0156 to 0.500 kg per hectare of test compound per cup. The treated cups are then placed on greenhouse benches, watered and cared for in accordance with conventional greenhouse procedures. From four to five weeks after treatment, the tests are terminated and each cup is examined and rated according to the rating system provided in Example 37.
(§5) The compounds evaluated are reported by compound number given in Example 37.

ECHCG (Barnyardgrass) = test: Preemergence herbicidal evaluation; type: in vivo, Echinochloa crus-galli; conditions: rated 4-5 weeks after treatment
In short: as §2

[2] = test system: IPOHE (Morningglory, Ivyleaf); test: Postemergence herbicidal evaluation; type: in vivo, Ipomoea hederacea; conditions: postemergence
In short: (§6)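 Scores (0–9) reflect plant stand, vigor, malformation, size, chlorosis and general appearance relative to control, read 4 to 5 weeks after treatment and averaged where tests were repeated. Application: about 0.0156–0.500 kg/ha sprayed at 40 psi onto two-week seedlings.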

[3] = test system: SAGPY (Arrowhead (Pygmaea)); test: Preemergence weed control under flooded paddy conditions; type: in vivo, Sagittaria pygmaea; conditions: rated 3-4 weeks after treatment
In short: as §1

SETVI (Foxtail, Green) = test: Preemergence herbicidal evaluation; type: in vivo, Setaria viridis; conditions: rated 4-5 weeks after treatment
In short: as §2

ZEAMX (Corn, Field) = test: Postemergence herbicidal evaluation; type: in vivo, Zea mays; conditions: postemergence
In short: as §6

AMBEL (Ragweed, Common) [4] = test: Postemergence herbicidal evaluation; type: in vivo, Ambrosia artemisifolia; conditions: postemergence
In short: as §6

[5] = test system: GLXMAW (Soybean, Williams); test: Postemergence herbicidal evaluation; type: in vivo, Glycine max, (L.) Merr. cv Williams; conditions: postemergence
In short: as §6

GALAP (Galium) = test: Preemergence herbicidal evaluation; type: in vivo, Galium aparine; conditions: rated 4-5 weeks after treatment
In short: as §2

AMBEL (Ragweed, Common) [6] = test: Preemergence herbicidal evaluation; type: in vivo, Ambrosia artemisifolia; conditions: rated 4-5 weeks after treatment
Text: as §3, §4, §5

[7] = rate 0.1250 kg/ha, rating scale 0-9
[8] = rate 0.2500 kg/ha, rating scale 0-9

With `COC(=O)CSCCN1C(=O)CSC1=Nc1cc(-n2c(=O)cc(C(F)(F)F)n(C)c2=O)c(F)cc1Cl` [Compound 158, Methyl {{2-{2-{{2-chloro-5-[3,6-dihydro-3-methyl-2,6-dioxo-4-(trifluoromethyl)-1(2H)-pyrimidinyl]-4-fluorophenyl}imino}-4-oxo-3-thiazolidinyl}ethyl}-thio}acetate] the “herbicidal effect rating, CYPSE” value (CYPSE (Flatsedge); 0.0313 kg/ha) was 5.0, the “herbicidal effect rating, CYPSE” value (CYPSE (Flatsedge); 0.0625 kg/ha) was 9.0 and the “herbicidal effect rating, CYPSE” value (CYPSE (Flatsedge); 0.1250 kg/ha) was 9.0. The “herbicidal effect rating, CYPSE” value (CYPSE (Flatsedge); 0.2500 kg/ha) was 9.0, the “Preemergence herbicidal rating ABUTH” value (ABUTH (Velvetleaf); 0.0156 kg/ha) was 9.0 and the “Preemergence herbicidal rating ABUTH” value (ABUTH (Velvetleaf); 0.0313 kg/ha) was 9.0. For the same molecule, the “Preemergence herbicidal rating ABUTH” value (ABUTH (Velvetleaf); 0.0625 kg/ha) was 9.0, the “Preemergence herbicidal rating ABUTH” value (ABUTH (Velvetleaf); [7]) was 9.0 and the “Preemergence herbicidal rating ABUTH” value (ABUTH (Velvetleaf); [8]) was 9.0. The “Preemergence herbicidal rating CASOB” value (CASOB (Sicklepod); 0.0156 kg/ha) was 1.0, the “Preemergence herbicidal rating CASOB” value (CASOB (Sicklepod); 0.0313 kg/ha) was 3.0 and the “Preemergence herbicidal rating CASOB” value (CASOB (Sicklepod); 0.0625 kg/ha) was 4.0. The “Preemergence herbicidal rating CASOB” value (CASOB (Sicklepod); [7]) was 9.0, the “Preemergence herbicidal rating CASOB” value (CASOB (Sicklepod); [8]) was 5.0 and the “Preemergence herbicidal rating GLXMAW” value ([1]; 0.0156 kg/ha) was 1.0. For the same molecule, the “Preemergence herbicidal rating GLXMAW” value ([1]; 0.0313 kg/ha) was 4.0, the “Preemergence herbicidal rating GLXMAW” value ([1]; 0.0625 kg/ha) was 6.0 and the “Preemergence herbicidal rating GLXMAW” value [1, 7] was 7.0. The “Preemergence herbicidal rating GLXMAW” value [1, 8] was 9.0, the “Preemergence herbicidal rating ECHCG” value (ECHCG (Barnyardgrass); 0.0156 kg/ha) was 2.0 and the “Preemergence herbicidal rating ECHCG” value (ECHCG (Barnyardgrass); 0.0313 kg/ha) was 7.0. For the same molecule, the “Preemergence herbicidal rating ECHCG” value (ECHCG (Barnyardgrass); 0.0625 kg/ha) was 9.0, the “Preemergence herbicidal rating ECHCG” value (ECHCG (Barnyardgrass); [7]) was 9.0 and the “Preemergence herbicidal rating ECHCG” value (ECHCG (Barnyardgrass); [8]) was 9.0. For the same molecule, the “herbicidal rating IPOHE” value ([2]; rate 0.0156 kg/ha) was 9.0, the “herbicidal rating IPOHE” value ([2]; rate 0.0313 kg/ha) was 9.0 and the “herbicidal rating IPOHE” value ([2]; rate 0.0625 kg/ha) was 9.0. The “herbicidal effect rating, SAGPY” value ([3]; 0.0313 kg/ha) was 4.0, the “herbicidal effect rating, SAGPY” value ([3]; 0.0625 kg/ha) was 5.0 and the “herbicidal effect rating, SAGPY” value ([3]; 0.1250 kg/ha) was 6.0. The “herbicidal effect rating, SAGPY” value ([3]; 0.2500 kg/ha) was 9.0, the “Preemergence herbicidal rating SETVI” value (SETVI (Foxtail, Green); 0.0156 kg/ha) was 7.0 and the “Preemergence herbicidal rating SETVI” value (SETVI (Foxtail, Green); 0.0313 kg/ha) was 9.0. The “Preemergence herbicidal rating SETVI” value (SETVI (Foxtail, Green); 0.0625 kg/ha) was 9.0, the “Preemergence herbicidal rating SETVI” value (SETVI (Foxtail, Green); [7]) was 9.0 and the “Preemergence herbicidal rating SETVI” value (SETVI (Foxtail, Green); [8]) was 9.0. The “herbicidal rating ZEAMX” value (ZEAMX (Corn, Field); rate 0.0156 kg/ha) was 4.0, the “herbicidal rating ZEAMX” value (ZEAMX (Corn, Field); rate 0.0313 kg/ha) was 4.5 and the “herbicidal rating ZEAMX” value (ZEAMX (Corn, Field); rate 0.0625 kg/ha) was 5.5. The “herbicidal rating AMBEL” value (AMBEL (Ragweed, Common) [4]; rate 0.0156 kg/ha) was 6.0, the “herbicidal rating AMBEL” value (AMBEL (Ragweed, Common) [4]; rate 0.0313 kg/ha) was 7.0 and the “herbicidal rating AMBEL” value (AMBEL (Ragweed, Common) [4]; rate 0.0625 kg/ha) was 9.0. For the same molecule, the “herbicidal rating GLXMAW” value ([5]; rate 0.0156 kg/ha) was 5.0, the “herbicidal rating GLXMAW” value ([5]; rate 0.0313 kg/ha) was 5.0 and the “herbicidal rating GLXMAW” value ([5]; rate 0.0625 kg/ha) was 7.0. The “Preemergence herbicidal rating GALAP” value (GALAP (Galium); 0.0156 kg/ha) was 0.0, the “Preemergence herbicidal rating GALAP” value (GALAP (Galium); 0.0313 kg/ha) was 0.0 and the “Preemergence herbicidal rating GALAP” value (GALAP (Galium); 0.0625 kg/ha) was 5.0. For the same molecule, the “Preemergence herbicidal rating GALAP” value (GALAP (Galium); [7]) was 7.0, the “Preemergence herbicidal rating GALAP” value (GALAP (Galium); [8]) was 6.0 and the “Preemergence herbicidal rating AMBEL” value (AMBEL (Ragweed, Common) [6]; 0.0156 kg/ha) was 1.0. For the same molecule, the “Preemergence herbicidal rating AMBEL” value (AMBEL (Ragweed, Common) [6]; 0.0313 kg/ha) was 3.0, the “Preemergence herbicidal rating AMBEL” value (AMBEL (Ragweed, Common) [6]; 0.0625 kg/ha) was 7.0 and the “Preemergence herbicidal rating AMBEL” value (AMBEL (Ragweed, Common) [6]; [7]) was 9.0. For the same molecule, the “Preemergence herbicidal rating AMBEL” value (AMBEL (Ragweed, Common) [6]; [8]) was 9.0.
